Test results from article PMC12164071, “Lysine targeting covalent inhibitors of malarial kinase PfCLK3” (RSC Medicinal Chemistry, 2025).
“Also recorded” adds a separate entry of the source. Where two headings read alike, the source gives them in different places.

Assays:
[1] = tested on: PfCLK3 kinase domain (amino acid residues 334–699); experiment: Intact protein LC-MS for covalent adduct formation; assay type: binding, Plasmodium falciparum; conditions: for Relative Ratio, assignment apo / Relative Ratio, assignment holo (singly modified): compound 4 with C-terminal His-tag construct; for covalent adduct formation with PfCLK3 kinase domain: pH 7.4, 1:5 protein to compound ratio
Experimental: All compounds were then evaluated for covalent binding with PfCLK3 kinase domain (amino acid residues 334–699) using intact protein LC-MS (Fig. 3). Compounds were incubated at pH 7.4 in a 1 : 5 protein to compound ratio and analysed for covalent adduct formation using ESI TOF. […] Compounds 8 and 9 yielded a fully modified species at 43 957 Da, which can be attributed to the mass of the apo protein + the mass of the pyridinium product adduct. A minor mass (20–25%) of 44 378 Da was also detected, consistent with a doubly modified PfCLK3 kinase domain. This implies that cross reactivity with non-catalytic lysine residues is possible using the ethynyl benzaldehyde functionality, although a minor product. […]
dialyzing the protein into a final buffer containing 20 mM HEPES pH 7.4, 150 mM NaCl, 1 […]
PfCLK3 kinase domain (residues 334–699 with a C-terminal TEV cleavage sequence and His6-tag) was cloned into pFastBac vector and expressed and purified from Sf21 insect cells.
Cells were infected using P2 BIICs at an MOI of 0.2 and left to express for 72 h. Harvested cells were lysed and centrifuged before purifying using IMAC and SEC in a final buffer containing 20 mM HEPES pH 7.4, 150 mM NaCl, 1 mM TCEP, and 1 mM MgCl2.
Protein Mass Spectrometry
For intact protein mass spectrometry, compounds were incubated with a 5-fold excess of compound in buffer containing 20 mM HEPES pH 7.4, 150 mM NaCl, 1 mM TCEP, and 1 mM MgCl 2. 5 μL of kinase domain (1 mg/mL) was added to 25 μL of buffer before 0.12 μL of compound in a 10 mM DMSO stock was added to start the incubation. Samples were incubated at room temperature for 4 hours before 10 μL alliquots were analysed by LC-MS.
Intact protein LC-MS experiments were performed on a Synapt G2 Q-ToF instrument equipped with electrospray ionisation (Waters Corp., Manchester, UK). LC separation was achieved using an Acquity UPLC equipped with a reverse phase C4 Aeris Widepore 50 × 2.1 mm HPLC column (Phenomenex, CA, USA) and a gradient of 5–95% acetonitrile (0.1% formic acid) over 10 minutes was employed. Data analysis was performed using MassLynx v4.1 and deconvolution was performed using MaxEnt. […]

recombinant PfCLK3 = recombinant PfCLK3 (Plasmodium falciparum, UniProt Q8IIL5); experiment: TR-FRET kinase assay at Km ATP; assay type: biochemical; conditions: for IC50: 2 hour incubation, errors SD, N ≥ 3, * concentration response curve not complete; for kinase activity in words: Km ATP
Sequence of recombinant PfCLK3 (Q8IIL5 entry or part of it): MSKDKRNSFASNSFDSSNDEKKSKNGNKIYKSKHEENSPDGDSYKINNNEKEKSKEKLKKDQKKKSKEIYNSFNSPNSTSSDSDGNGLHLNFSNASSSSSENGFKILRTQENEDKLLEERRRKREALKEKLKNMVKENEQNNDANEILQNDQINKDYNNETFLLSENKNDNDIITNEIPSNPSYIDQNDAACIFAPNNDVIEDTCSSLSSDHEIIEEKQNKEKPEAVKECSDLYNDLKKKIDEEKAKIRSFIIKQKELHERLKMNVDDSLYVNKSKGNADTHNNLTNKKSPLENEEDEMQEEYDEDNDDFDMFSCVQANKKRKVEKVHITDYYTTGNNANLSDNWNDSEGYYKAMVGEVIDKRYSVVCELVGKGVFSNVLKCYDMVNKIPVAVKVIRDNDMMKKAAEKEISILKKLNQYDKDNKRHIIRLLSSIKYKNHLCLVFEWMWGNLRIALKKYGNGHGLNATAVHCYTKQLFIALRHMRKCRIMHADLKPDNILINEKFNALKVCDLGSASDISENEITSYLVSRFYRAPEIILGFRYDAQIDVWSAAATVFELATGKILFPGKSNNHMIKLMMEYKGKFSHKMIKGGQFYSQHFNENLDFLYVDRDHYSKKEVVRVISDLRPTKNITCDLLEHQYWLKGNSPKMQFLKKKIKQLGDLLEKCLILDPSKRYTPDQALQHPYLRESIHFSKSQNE
Experimental: All compounds were then evaluated against recombinant PfCLK3 using a TR-FRET kinase assay (Fig. 5). […]
Time Resolved Förster Resonance Energy Transfer (TR-FRET) Assay
Tr-FRET technology was used to determine kinase activity and Km ATP before profiling compounds. An 11-point half-log serial dilution of each test compound was prepared in 100% DMSO at 100X final test concentration. The dilution series were dispensed onto assay plates with liquid handling machinery using positive displacement. The final DMSO concentration in the assay was 1%. To obtain IC 50 values, full length recombinant PfCLK3 was prepared in 1X assay buffer (50 mM Hepes, 10 mM MgCl2, 1 mM EGTA, 0.01% Tween20, 2 mM TCEP) at a 2X concentration and incubated with compounds for 15 minutes at room temperature before addition of ULight-labelled peptide substrate (MBP) with Km ATP (at 2X concentration). The reaction was centrifuged and incubated for 2 hr at 37 °C. To stop the reaction, 1X Lance detection buffer was added with 1 nM Eu-labelled anti-MBP and 10 mM EDTA, and the reaction was incubated in the dark for 2 hr at room temperature to allow detection to take place. Plate output was read on a Pherastar FSX and data analysed in Graphpad Prism to a 4-parameter curve fit. […]

[2] = tested on: 3D7 Plasmodium falciparum parasites; experiment: Ex vivo P. falciparum (3D7) inhibition assay; assay type: cell-based
Experimental: Compounds 4, 5, 8 and 9 were then assessed against 3D7 Plasmodium falciparum parasites (Fig. 6). […]
P. falciparum (3D7) culture and synchronisation.
P. falciparum cultures were maintained in RPMI-1640 media (Invitrogen) supplemented with 0.2% sodium bicarbonate, 0.5% Albumax II, 2.0 mM L-glutamine (Sigma) and 10 mg/L gentamycin. For continuous culture, the parasites were maintained at 4% haematocrit in human erythrocytes from 0+ blood donors and between 0.5 - 3% parasitaemia in an incubator at 37 °C, 5% carbon dioxide (CO 2), 5% oxygen (O 2) and 90% nitrogen (N 2). To obtain highly synchronous ring stage parasites for assays, cultures were double synchronised using Percoll and Sorbitol synchronisation. First, highly segmented schizonts were enriched by centrifugation on a 70% Percoll (GE Healthcare) cushion gradient. The Schizont pellet was collected and washed twice before fresh erythrocytes were added to a final haematocrit of 4%, and incubated for about 1-2 hours shaking continuously to allow merozoites egress and re-invasion of new erythrocytes. Residual schizonts were then removed by a second Percoll purification followed by treating the ring pellet with sorbitol to generate highly synchronous 1-2 hours old ring-stage parasites.
Ex vivo P. Falciparum (3D7) inhibition assay.
To determine the IC 50 of the molecules in parasites (P. falciparum 3D7) ex vivo, the molecules were diluted 1 in 3 from a starting concentration of 100 μM for 12 dilution points in triplicate. 50 μL of freshly diluted drugs, at twice the required final concentrations were aliquoted into black 96-well plates. To the compound plates, 50 μL of parasites prepared at 8% haematocrit at a parasitaemia (0.3 - 0.5%) were added and mixed by pipetting up and down several times giving a final culture volume of 100 μL at the required compound concentration (top concentration of 100 μM) and 4% haematocrit. To the ‘no compound’ control, growth media was added and uninfected erythrocytes were included on the plate as blank. The outer wells were filled with media to reduce evaporation from the experimental wells and the plates incubated for 72 hours (±2 hours) to allow the parasites sufficient time to re-invade before they are collected and frozen. For cellular washout studies, compound media was exchanged for compound-free media after 6 hours, and the parasites incubated for a […]

human (h)CLK2 = human (h)CLK2 (Homo sapiens, UniProt P49760); experiment: Selectivity kinase assay against hCLK2; assay type: biochemical; conditions: for IC50: errors SD, N ≥ 3
Sequence of human (h)CLK2 (P49760 whole entry): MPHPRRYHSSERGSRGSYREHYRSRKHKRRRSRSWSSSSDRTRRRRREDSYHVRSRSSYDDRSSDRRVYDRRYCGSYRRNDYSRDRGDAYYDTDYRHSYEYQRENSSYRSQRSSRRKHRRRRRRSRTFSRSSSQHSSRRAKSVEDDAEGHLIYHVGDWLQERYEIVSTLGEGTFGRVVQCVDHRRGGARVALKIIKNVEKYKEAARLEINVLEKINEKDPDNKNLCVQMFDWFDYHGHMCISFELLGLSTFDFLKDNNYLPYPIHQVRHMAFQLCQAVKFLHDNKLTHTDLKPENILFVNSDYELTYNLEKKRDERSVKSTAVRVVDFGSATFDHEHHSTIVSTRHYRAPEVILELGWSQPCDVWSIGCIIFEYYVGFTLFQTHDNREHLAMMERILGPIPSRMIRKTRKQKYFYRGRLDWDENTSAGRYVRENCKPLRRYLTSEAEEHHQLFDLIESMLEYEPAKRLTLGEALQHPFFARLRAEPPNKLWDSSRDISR
Description: Given this work aims to target a conserved residue, selectivity must be derived from the reversible ligand rather than the covalent interaction.

[3] = Human cell viability assay (resazurin); conditions: HepG2, 48 hours, errors SD, N ≥ 3
Experimental: Cytotoxicity was assessed in HepG2 cells to complement the selectivity evaluations (Fig. 7). […]
Human cell viability assay.
Mycoplasma tested HepG2 cells were cultured in Dulbecco’s Modified Eagle Medium
(DMEM) with 10% fetal bovine serum, 1% non-essential AA, 1% sodium pyruvate, 1% Pen-
strep and 100ug/mL Normocin. Cultures were incubated at 37 ℃, 5% CO2. Cells were
detached using 0.05% trypsin-EDTA. 500nL of drug compound dilutions, in triplicate, were
added to 384-well, black, clear bottom assay plates using a Mosquito liquid handling
machine. Assay plates, containing compound dilutions, were seeded at 5,000 cells/well and
incubated for 48 hours. 40uM final concentration resazurin, diluted in DPBS, was added to
the assay plates which were then incubated for 4 hours and analysed using a ClariostarTM
plate reader to measure fluorescence Intensity (545-20nm/600-40nm). 3 control compounds
were included on every assay plate, Tamoxifen, Puromycin and TCMDC-135051. Maximum
signal control was obtained from wells with DMSO only and minimum signal control with
Tamoxifen 100uM. These were used to normalise data and give percentage inhibition of
metabolic activity. Experiments were performed N=3 and normalised data was grouped and a
nonlinear regression curve with four parameters was plotted using GraphPad Prism,
generating activity data. […]

[4] = pH 7.4, 1:5 protein to compound, 4 hours room temperature
[5] = 3D7, Pf3D7 parasites, 72 hours, errors SD, N ≥ 3, read-out: EC50 (3D7)
[6] = 3D7, Pf3D7 parasites, 72 hours, errors SD, N ≥ 3, read-out: pEC50 (3D7) (converted)

SMILES	Relative Ratio, assignment apo [1, 4]	IC50 (recombinant PfCLK3; IC50 (apparent), Km ATP (5 μM)) [nM]	IC50 (recombinant PfCLK3; pIC50, Km ATP (5 μM)) [nM]	covalent adduct formation with PfCLK3 kinase domain [1]	CC50 at 48 h ([3]; CC50 (HepG2)) [nM]	CC50 at 48 h ([3]; pCC50 (HepG2)) [nM]	further results
CCN(CC)Cc1ccc(OC)c(-c2cnc3[nH]cc(-c4ccc(S(=O)(=O)F)cc4)c3c2)c1 [Compound 3]	100	302 ± 33	302	–	–	–	–
C=CC(=O)Nc1ccc(-c2ccnc3[nH]c(-c4cc(CN(CC)CC)ccc4OC)cc23)cc1 [Compound 12]	100	–	–	–	–	–	–
C=CC(=O)Nc1ccc(-c2c[nH]c3ncc(-c4cc(CN(CC)CC)ccc4OC)cc23)cc1 [Compound 13]	100	1950	2000	–	–	–	kinase activity in words (recombinant PfCLK3): significantly lower activity than all other analogues
C=CS(=O)(=O)Nc1ccc(-c2c[nH]c3ncc(-c4cc(CN(CC)CC)ccc4OC)cc23)cc1 [Compound 11]	–	892	891	–	–	–	kinase activity in words (recombinant PfCLK3): poorly active, not reaching 100% inhibition at the highest concentration tested
C#Cc1ccc(-c2ccnc3[nH]c(-c4cc(CN(CC)CC)ccc4OC)cc23)cc1C=O [Compound 8]	–	29 ± 3	28.8	showed covalent adduct formation; also recorded: formed a covalent adduct with PfCLK3	12300 ± 2530	12300	doubly modified PfCLK3 kinase domain, minor mass abundance ([1]; 44 378 Da species): 20–25%; Relative Ratio, assignment holo (doubly modified) [1, 4]: 25; Relative Ratio, assignment holo (singly modified) [1, 4]: 75; EC50 [2, 5]: 2270 ± 2890 nM; EC50 [2, 6]: 2290 nM; IC50 (human (h)CLK2; read-out: IC50 (hCLK2)): 69 ± 31 nM
CCN(CC)Cc1ccc(OC)c(-c2cc3c(-c4ccc(C=O)c(O)c4)ccnc3[nH]2)c1 [Compound 6]	100	155 ± 19	155	unable to covalently bind the protein	–	–	–
CCN(CC)Cc1ccc(OC)c(-c2cnc3[nH]cc(-c4ccc(O)c(C=O)c4)c3c2)c1 [Compound 5]	68	19 ± 10	19.5	showed covalent adduct formation; also recorded: formed a covalent adduct with PfCLK3	4740 ± 3180	2690	partial covalent bond formation, modification ([1]; imine adduct): 32–60%; Relative Ratio, assignment holo (singly modified) [1, 4]: 32; EC50 [2, 5]: 3260 ± 1670 nM; EC50 [2, 6]: 3240 nM; IC50 (human (h)CLK2; read-out: pIC50 (hCLK2) (converted)): 11 nM; fold more potent against hCLK2 than parent S1 (human (h)CLK2; relative to S1): 20 fold
CCN(CC)Cc1ccc(OC)c(-c2cc3c(-c4ccc(C(=O)O)c(C(C)C)c4)ccnc3[nH]2)c1 [Compound 1, TCMDC-135051, reference compound]	–	17 ± 3	17.4	–	2750 ± 580	2750	EC50 ([2]; 3D7, 72 h, read-out: EC50 (3D7)): 266 ± 11 nM; EC50 ([2]; 3D7, 72 h, read-out: pEC50 (3D7) (converted)): 263 nM; IC50 (human (h)CLK2; IC50 (hCLK2)): 879 ± 325 nM; IC50 (human (h)CLK2; pIC50 (hCLK2)): 891 nM
CCN(CC)Cc1ccc(OC)c(-c2cnc3[nH]cc(-c4ccc(C=O)c(O)c4)c3c2)c1 [Compound 7]	100	83 ± 42	83.2	unable to covalently bind the protein	–	–	–
CCN(CC)Cc1ccc(OC)c(-c2cc3c(-c4ccc(S(=O)(=O)F)cc4)ccnc3[nH]2)c1 [Compound 2]	100	83 ± 10	83.2	–	–	–	–
